23 molecules from US11312719B2, “9-substituted amino triazolo quinazoline derivatives as adenosine receptor antagonists, pharmaceutical compositions and their use” (Merck Sharp & Dohme Corp., priority 2018, dated 2022) can be followed below.

Experiment [1] has as its target human A2a adenosine receptor (Homo sapiens (Human), UniProt P29274). Description: A2a receptor affinity radioligand binding assay ([3H] SCH58261). To be noted: for IC50: membranes from HEK293 or CHO cells expressing human A2a receptor. An outline of the steps:
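Membranes from HEK293 or CHO cells expressing human A2a were preincubated 15–30 min at room temperature with compound, then incubated 60 min at room temperature with [3H]SCH58261 (diluted to 4 nM) in 50 mM Tris pH 7.4, 10 mM MgCl2, 0.005% Tween20. Bound radioactivity was collected by filtration; nonspecific binding defined with 1 μM ZM241385; IC50 from 4-parameter logistic fit.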

Experiment [2] concerns the target human A2b adenosine receptor (Homo sapiens (Human), UniProt P29275). Description: A2b radioligand filtration binding assay. The settings on record: membranes from HEK293 cells expressing human A2b receptor. An outline of the steps: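 Membranes from HEK293 cells expressing human A2b receptor preincubated with compound 15 to 30 min at room temperature, then tritiated proprietary A2b antagonist (diluted to 14 nM before addition) added in PBS pH 7.4 for 60 min at room temperature. Bound radioactivity by filtration and scintillation; non-specific binding with 20 μM NECA; IC50 by 4-parameter logistic fit.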

Sequence of human A2a adenosine receptor (P29274 whole entry): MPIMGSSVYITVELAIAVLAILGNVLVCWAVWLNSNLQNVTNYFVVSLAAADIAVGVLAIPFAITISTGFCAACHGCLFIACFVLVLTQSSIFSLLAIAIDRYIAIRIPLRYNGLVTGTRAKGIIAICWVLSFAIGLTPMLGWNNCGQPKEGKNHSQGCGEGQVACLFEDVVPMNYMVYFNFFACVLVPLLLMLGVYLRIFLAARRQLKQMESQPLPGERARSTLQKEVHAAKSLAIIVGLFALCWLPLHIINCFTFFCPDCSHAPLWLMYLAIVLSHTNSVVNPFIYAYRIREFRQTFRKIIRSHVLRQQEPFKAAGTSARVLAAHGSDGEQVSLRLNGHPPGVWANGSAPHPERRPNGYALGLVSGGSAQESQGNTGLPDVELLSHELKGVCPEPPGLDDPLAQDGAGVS
Sequence of human A2b adenosine receptor (P29275 whole entry): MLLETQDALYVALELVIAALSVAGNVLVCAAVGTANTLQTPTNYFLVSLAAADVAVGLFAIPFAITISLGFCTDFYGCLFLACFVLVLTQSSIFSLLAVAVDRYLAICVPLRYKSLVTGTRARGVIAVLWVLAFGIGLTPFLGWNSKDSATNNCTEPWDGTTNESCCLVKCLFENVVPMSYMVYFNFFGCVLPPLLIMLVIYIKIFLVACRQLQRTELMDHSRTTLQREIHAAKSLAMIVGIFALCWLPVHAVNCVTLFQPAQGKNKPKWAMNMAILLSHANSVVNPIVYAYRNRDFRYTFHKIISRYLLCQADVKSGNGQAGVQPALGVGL

As usually defined, the IC50 is the midpoint of a concentration-inhibition curve. A high value points to lower potency. For `COc1cc2nc(N)n3nc(C4CN(c5cnn(CC(C)(C)O)c5C)CCS4(=O)=O)nc3c2cc1F` (single isomer, unassigned) [Example 145, (S or R)-2-(5-amino-9-fluoro-8-methoxy-[1,2,4]triazolo[1,5-c]quinazolin-2-yl)-4-(1-(2-hydroxy-2-methylpropyl)-5-methyl-1H-pyrazol-4-yl)thiomorpholine 1,1-dioxide], the “A2A binding % Inh. @ 1000 nM” value in experiment [1] (@ 1000 nM) is reported as 32% Inh. @. Moreover, the IC50 in experiment [2] is 8050 nM.

For the molecule `CCn1cc([C@@]2(O)CCCC(c3nc4c5cc(F)c(OC)cc5nc(N)n4n3)C2)cn1` (single isomer, unassigned) [Example 146, (1R or 1S,3R or 3S)-3-(5-amino-9-fluoro-8-methoxy-[1,2,4]triazolo[1,5-c]quinazolin-2-yl)-1-(1-ethyl-1H-pyrazol-4-yl)cyclohexan-1-ol], the 50% inhibitory concentration (IC50) in experiment [1] is 2.1 nM; in experiment [2], 137 nM.

As for `CCn1cc([C@]2(O)CCC[C@H](c3nc4c5cc(F)c(OC)cc5nc(N)n4n3)C2)cn1` (single isomer, unassigned) [Example 147, (1S or 1R,3S or 3R)-3-(5-amino-9-fluoro-8-methoxy-[1,2,4]triazolo[1,5-c]quinazolin-2-yl)-1-(1-ethyl-1H-pyrazol-4-yl)cyclohexan-1-ol], the results for the IC50 in experiment [1] and in experiment [2] were 870 nM and 6330 nM, respectively.

`CCn1cc([C@]2(O)CCC[C@@H](c3nc4c5cc(F)c(OC)cc5nc(N)n4n3)C2)cn1` (single isomer, unassigned) [Example 148, (1S or 1R,3R or 3S)-3-(5-amino-9-fluoro-8-methoxy-[1,2,4]triazolo[1,5-c]quinazolin-2-yl)-1-(1-ethyl-1H-pyrazol-4-yl)cyclohexan-1-ol]: the IC50 in experiment [1] stood at 385 nM; in experiment [2], 4430 nM.

With `CCn1cc([C@]2(O)CCC[C@@H](c3nc4c5cc(F)c(OC)cc5nc(N)n4n3)C2)cn1` (single isomer, unassigned) [Example 149, (1S or 1R,3R or 3S)-3-(5-amino-9-fluoro-8-methoxy-[1,2,4]triazolo[1,5-c]quinazolin-2-yl)-1-(1-ethyl-1H-pyrazol-4-yl)cyclohexan-1-ol], the IC50 in experiment [1] stood at 1.8 nM; in experiment [2] it was 96.6 nM.

Consider `COc1cccc2c1nc(N)n1nc([C@@H]3CCC[C@](O)(c4cnn(CC(C)(C)O)c4)C3)nc21` (single isomer, unassigned) [Example 150, (1R,3R or 1S,3S)-3-(5-amino-7-methoxy-[1,2,4]triazolo[1,5-c]quinazolin-2-yl)-1-(1-(2-hydroxy-2-methylpropyl)-1H-pyrazol-4-yl)cyclohexan-1-ol], for which the IC50 in experiment [1] is 1.4 nM; in experiment [2], 181 nM.

Turning to `COc1cc2nc(N)n3nc([C@@H]4CCCN(c5ncn(CC(C)(C)O)n5)C4)nc3c2cc1F` [Example 1, (R)-1-(3-(3-(5-amino-9-fluoro-8-methoxy-[1,2,4]triazolo[1,5-c]quinazolin-2-yl)piperidin-1-yl)-1H-1,2,4-triazol-1-yl)-2-methylpropan-2-ol], the IC50 in experiment [1] came out at 7.5 nM; in experiment [2], 554 nM.

`COc1cc2nc(N)n3nc([C@@H]4CCCN(c5cnn(C)c5)C4)nc3c2cc1F` [Example 2, (R)-9-fluoro-8-methoxy-2-(1-(1-methyl-1H-pyrazol-4-yl)piperidin-3-yl)-[1,2,4]triazolo[1,5-c]quinazolin-5-amine]: the IC50 in experiment [1] was 3.7 nM; in experiment [2], 9.4 nM.

In the case of `COc1cc2nc(N)n3nc([C@@H]4CCCN(c5cnn(C(C)(C)C)c5)C4)nc3c2cc1F` [Example 3, (R)-2-(1-(1-(tert-butyl)-1H-pyrazol-4-yl)piperidin-3-yl)-9-fluoro-8-methoxy-[1,2,4]triazolo[1,5-c]quinazolin-5-amine], the IC50 in experiment [1] came out at 1.5 nM; in experiment [2], 180 nM.

As for `COc1cc2nc(N)n3nc([C@@H]4CCCN(c5cnn(C(C)C)c5)C4)nc3c2cc1F` [Example 4, (R)-9-fluoro-2-(1-(1-isopropyl-1H-pyrazol-4-yl)piperidin-3-yl)-8-methoxy-[1,2,4]triazolo[1,5-c]quinazolin-5-amine], the IC50 was 4.6 nM in experiment [1] and 2.6 nM in experiment [2].

Consider `COc1cc2nc(N)n3nc([C@@H]4CCCN(c5cnn(CC(F)(F)F)c5)C4)nc3c2cc1F` [Example 5, (R)-9-fluoro-8-methoxy-2-(1-(1-(2,2,2-trifluoroethyl)-1H-pyrazol-4-yl)piperidin-3-yl)[1,2,4]triazolo[1,5-c]quinazolin-5-amine], for which the IC50 in experiment [1] was 3.3 nM; in experiment [2] it was 1.6 nM.

Turning to `COc1cc2nc(N)n3nc([C@@H]4CCCN(c5cn(C)nn5)C4)nc3c2cc1F` [Example 6, (R)-9-fluoro-8-methoxy-2-(1-(1-methyl-1H-1,2,3-triazol-4-yl)piperidin-3-yl)-[1,2,4]triazolo[1,5-c]quinazolin-5-amine], the IC50 in experiment [1] turned out to be 2 nM; in experiment [2] it was 85.9 nM.

In the case of `COc1cc2nc(N)n3nc([C@@H]4CCCN(c5cnn(CC(C)(C)O)c5)C4)nc3c2cc1F` [Example 7, (R)-1-(4-(3-(5-amino-9-fluoro-8-methoxy-[1,2,4]triazolo[1,5-c]quinazolin-2-yl)piperidin-l-yl)-1H-pyrazol-1-yl)-2-methylpropan-2-ol], the IC50 in experiment [1] was determined as 3.7 nM; in experiment [2], 104 nM.

Take `COc1cc2nc(N)n3nc([C@@H]4CCCN(c5cnn(CC(C)(C)O)c5C)C4)nc3c2cc1F` [Example 8, (R)-1-(4-(3-(5-amino-9-fluoro-8-methoxy-[1,2,4]triazolo [1,5-c]quinazolin-2-yl)piperidin-l-yl)-5-methyl-1H-pyrazol-1-yl)-2-methylpropan-2-ol]: the IC50 in experiment [1] turned out to be 4.5 nM; in experiment [2], 149 nM.

With `COc1cc2nc(N)n3nc([C@@H]4CCCN(c5cn(CC(C)(C)O)nc5C)C4)nc3c2cc1F` [Example 9, (R)-1-(4-(3-(5-amino-9-fluoro-8-methoxy-[1,2,4]triazolo [1,5-c]quinazolin-2-yl)piperidin-1-yl)-3-methyl-1H-pyrazol-1-yl)-2-methylpropan-2-ol], the IC50 in experiment [1] amounted to 0.5 nM; in experiment [2], 136 nM.

With `COc1cc2nc(N)n3nc([C@@H]4CCCN(c5cnn(CC6(O)CCC6)c5)C4)nc3c2cc1F` [Example 10, (R)-1-((4-(3-(5-amino-9-fluoro-8-methoxy-[1,2,4]triazolo [1,5-c]quinazolin-2-yl)piperidin-1-yl)-1H-pyrazol-1-yl)methyl)cyclobutan-1-ol], the IC50 amounted to 3.5 nM in experiment [1] and 63.4 nM in experiment [2].

With `COc1cc2nc(N)n3nc([C@@H]4CCCN(c5cn(C(C)(C)CO)nc5C)C4)nc3c2cc1F` [Example 11, (R)-2-(4-(3-(5-amino-9-fluoro-8-methoxy-[1,2,4]triazolo[1,5-c]quinazolin-2-yl)piperidin-1-yl)-3-methyl-1H-pyrazol-1-yl)-2-methylpropan-1-ol], the IC50 in experiment [1] is 0.5 nM; in experiment [2], 56 nM.

For the molecule `COc1cc2nc(N)n3nc([C@@H]4CCCN(c5cnn([C@H]6C[C@@](C)(O)C6)c5)C4)nc3c2cc1F` [Example 14, (1s,3s)-3-(4-((R)-3-(5-amino-9-fluoro-8-methoxy-[1,2,4]triazolo[1,5-c]quinazolin-2-yl)piperidin-l-yl)-1H-pyrazol-1-yl)-methylcyclobutan-1-ol], the IC50 in experiment [1] came to 3 nM; in experiment [2], 225 nM.

Turning to `COc1cc2nc(N)n3nc([C@@H]4CCCN(c5cnn(CC6(C)COC6)c5)C4)nc3c2cc1F` [Example 15, (R)-9-fluoro-8-methoxy-2-(1-(1-((3-methyloxetan-3-yl)methyl)-1H-pyrazol-4-yl)piperidin-3-yl)[1,2,4] triazolo[1,5-c]quinazolin-5-amine], the IC50 in experiment [1] was found to be 38.4 nM; in experiment [2], 905 nM.

In the case of `COc1cc2nc(N)n3nc([C@@H]4CCCN(c5cnn(C6CCOCC6)c5C)C4)nc3c2cc1F` [Example 16, (R)-9-fluoro-8-methoxy-2-(1-(5-methyl-1-(tetrahydro-2H-pyran-4-yl)-1H-pyrazol-4-yl)piperidin-3-yl)-[1,2,4]triazolo[1,5-c]quinazoliu-5-amine], the IC50 in experiment [1] came out at 0.8 nM; in experiment [2], 426 nM.

Regarding `COc1cc2nc(N)n3nc([C@@H]4CCCN(c5cn(C6CCOCC6)nc5C)C4)nc3c2cc1F` [Example 17, (R)-9-fluoro-8-methoxy-2-(1-(3-methyl-1-(tetrahydro-2H-pyran-4-yl)-1H-pyrazol-4-yl)piperidin-3-yl) [1,2,4]triazolo[1,5-c]quinazolin-5-amine], the values for the IC50 in experiment [1] and in experiment [2] were 1.7 nM and 434 nM, respectively.

With `COc1cc2nc(N)n3nc([C@@H]4CCCN(c5cnn(C6CCOCC6)c5C(F)F)C4)nc3c2cc1F` [Example 18, (R)-2-(1-(5-(difluoromethyl)-1-(tettahydro-2H-pyran-4-yl)-1H-pyrazol-4-yl)piperidin-3-yl)-9-fluoro-8-methoxy-[1,2,4]triazolo[1,5-c]quinazolin-5-amine], the IC50 stood at 0.7 nM in experiment [1] and 13.5 nM in experiment [2].

Consider `COc1cc2nc(N)n3nc([C@@H]4CCCN(c5cn(C6CCOCC6)nc5C(F)F)C4)nc3c2cc1F` [Example 19, (R)-2-(1-(3-(difluoromethyl)-1-(tetrahydro-2H-pyran-4-yl)-1H-pyrazol-4-yl)piperidin-3-yl)-9-fluoro-8-methoxy-[1,2,4]triazolo[1,5-c]quinazolin-5-amine], for which the concentration for half-maximal inhibition (IC50) came out at 0.7 nM in experiment [1] and 87.3 nM in experiment [2].
